Data on 10 compounds can be found in paper PMC9516332 (Frontiers in Oncology, 2022).

Read-outs that look alike come from different tables or passages of the source.

Common to all, as to test: Kinase panel profiling at 1 µmol/L (MSA or IMAP), percentage inhibition
Holding throughout (type): biochemical

Test [1] has as its target T1, panel of 255 wild-type kinases (Homo sapiens, UniProt Q06418).
T1 sequence (Q06418 41-890): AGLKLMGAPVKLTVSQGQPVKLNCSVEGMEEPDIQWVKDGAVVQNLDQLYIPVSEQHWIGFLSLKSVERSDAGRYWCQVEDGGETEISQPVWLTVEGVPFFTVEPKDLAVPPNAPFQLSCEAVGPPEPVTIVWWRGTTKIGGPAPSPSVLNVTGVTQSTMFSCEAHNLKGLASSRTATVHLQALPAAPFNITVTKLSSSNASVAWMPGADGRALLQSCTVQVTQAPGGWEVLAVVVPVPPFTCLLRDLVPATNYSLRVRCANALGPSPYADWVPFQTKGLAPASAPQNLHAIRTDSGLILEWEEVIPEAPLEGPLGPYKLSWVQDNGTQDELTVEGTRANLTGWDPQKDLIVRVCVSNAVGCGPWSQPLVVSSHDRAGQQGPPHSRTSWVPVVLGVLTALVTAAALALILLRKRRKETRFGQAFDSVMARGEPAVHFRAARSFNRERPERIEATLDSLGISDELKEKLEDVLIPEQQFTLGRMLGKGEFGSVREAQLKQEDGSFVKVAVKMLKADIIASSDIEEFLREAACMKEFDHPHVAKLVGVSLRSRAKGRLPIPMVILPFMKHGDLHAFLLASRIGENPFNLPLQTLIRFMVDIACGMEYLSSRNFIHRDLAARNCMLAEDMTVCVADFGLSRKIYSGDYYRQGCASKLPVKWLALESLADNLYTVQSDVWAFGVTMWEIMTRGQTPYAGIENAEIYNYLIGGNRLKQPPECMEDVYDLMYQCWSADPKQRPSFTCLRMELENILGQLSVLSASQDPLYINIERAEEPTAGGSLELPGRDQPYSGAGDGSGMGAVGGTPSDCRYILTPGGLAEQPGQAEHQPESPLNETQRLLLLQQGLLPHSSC
The conditions noted are these: kinase TYRO3; 1 µmol/L single concentration; read-out: %-inhibition at 1 µmol/L, TYRO3.

The target of test [2] is panel of 255 wild-type kinases (Homo sapiens, UniProt Q13153). The conditions noted are these: PAK1; 1 µmol/L single concentration; read-out: %-inhibition, PAK1.
The target in test [3] is T2, panel of 255 wild-type kinases (Homo sapiens, UniProt Q9NZJ5).
T2 sequence (Q9NZJ5 30-1116): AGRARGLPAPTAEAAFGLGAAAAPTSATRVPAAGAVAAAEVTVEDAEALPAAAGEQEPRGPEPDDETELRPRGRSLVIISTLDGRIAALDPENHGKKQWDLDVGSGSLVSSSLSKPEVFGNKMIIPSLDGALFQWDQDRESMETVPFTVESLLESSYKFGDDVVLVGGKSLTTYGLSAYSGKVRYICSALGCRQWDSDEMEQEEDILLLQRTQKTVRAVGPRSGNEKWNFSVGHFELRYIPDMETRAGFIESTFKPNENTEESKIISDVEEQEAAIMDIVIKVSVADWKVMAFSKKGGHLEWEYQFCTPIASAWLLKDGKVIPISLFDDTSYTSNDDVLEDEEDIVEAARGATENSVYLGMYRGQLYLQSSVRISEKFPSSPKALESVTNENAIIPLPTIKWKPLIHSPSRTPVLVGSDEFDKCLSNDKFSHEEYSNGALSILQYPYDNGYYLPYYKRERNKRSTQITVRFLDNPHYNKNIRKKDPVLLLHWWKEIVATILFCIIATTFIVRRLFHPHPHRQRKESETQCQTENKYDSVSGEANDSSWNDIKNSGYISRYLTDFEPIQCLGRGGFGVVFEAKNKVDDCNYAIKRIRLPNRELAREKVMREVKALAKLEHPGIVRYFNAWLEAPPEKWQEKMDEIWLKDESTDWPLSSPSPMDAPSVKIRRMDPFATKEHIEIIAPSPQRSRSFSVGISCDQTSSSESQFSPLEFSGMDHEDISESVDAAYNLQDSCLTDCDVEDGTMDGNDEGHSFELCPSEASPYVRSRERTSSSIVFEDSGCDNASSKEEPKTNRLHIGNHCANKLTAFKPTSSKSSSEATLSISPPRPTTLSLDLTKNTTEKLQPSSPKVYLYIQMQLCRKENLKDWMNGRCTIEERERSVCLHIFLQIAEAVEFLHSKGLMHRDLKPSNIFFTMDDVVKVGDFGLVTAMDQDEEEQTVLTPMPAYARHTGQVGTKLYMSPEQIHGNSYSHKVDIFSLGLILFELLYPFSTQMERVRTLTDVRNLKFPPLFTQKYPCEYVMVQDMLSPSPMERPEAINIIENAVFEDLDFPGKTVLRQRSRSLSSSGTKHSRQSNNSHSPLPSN
The following applies: kinase PEK; 1 µmol/L single concentration; read-out: %-inhibition at 1 µmol/L, PEK.

Test [4] concerns the target panel of 255 wild-type kinases (Homo sapiens, UniProt Q14680). The conditions noted are these: MELK; 1 µmol/L single concentration; read-out: %-inhibition, MELK.
The target of test [5] is panel of 255 wild-type kinases (Homo sapiens, UniProt Q9Y6M4). The following applies: kinase CK1γ3; 1 µmol/L single concentration; read-out: %-inhibition at 1 µmol/L, CK1γ3.
Test [6] has as its target panel of 255 wild-type kinases (Homo sapiens, UniProt Q05397). The conditions noted are these: kinase FAK; 1 µmol/L single concentration; read-out: %-inhibition at 1 µmol/L, FAK.
Test [7] addresses T3, panel of 255 wild-type kinases (Homo sapiens, UniProt O14965).
T3 sequence (O14965 1-403): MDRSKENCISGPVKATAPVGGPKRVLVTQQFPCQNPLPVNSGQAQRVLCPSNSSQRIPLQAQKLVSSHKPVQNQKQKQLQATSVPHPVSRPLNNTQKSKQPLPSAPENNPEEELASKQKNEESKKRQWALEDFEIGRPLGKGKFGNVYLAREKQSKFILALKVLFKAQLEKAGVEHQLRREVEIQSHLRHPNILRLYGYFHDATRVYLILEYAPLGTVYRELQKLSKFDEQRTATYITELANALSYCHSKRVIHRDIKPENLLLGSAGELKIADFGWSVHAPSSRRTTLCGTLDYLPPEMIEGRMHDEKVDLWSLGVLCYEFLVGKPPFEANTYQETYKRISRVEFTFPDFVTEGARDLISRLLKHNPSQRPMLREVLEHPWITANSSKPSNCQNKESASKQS
The following applies: 1 µmol/L single concentration.

The target of test [8] is panel of 255 wild-type kinases (Homo sapiens, UniProt Q15418). The following applies: kinase RSK1; 1 µmol/L single concentration; read-out: %-inhibition at 1 µmol/L, RSK1.
[9] abbreviates: AurA kinase assay, read-out: %-inhibition AurA.
Setting [10] is: AurA/TPX2 kinase assay, read-out: %-inhibition AurA/TPX2.

For the compound `Cc1cc(Nc2ncnc3ccc(NC4=NC(C)(C)CO4)cc23)ccc1Oc1ccn2ncnc2c1` [tucatinib], the inhibition at 1 µM in test [1] was 6%; in test [2], -1.11%; in test [3] it was 1.59%; in test [4], 0.809%; in test [5], 11%; in test [6], -1.17%. Moreover, the inhibition at 1 µM in test [7] (setting [9]) is -1.53%; in test [7] (setting [10]), -9%; in test [8] it was -4.66%.
Turning to `C=CC(=O)N1CCC([C@@H]2CCNc3c(C(N)=O)c(-c4ccc(Oc5ccccc5)cc4)nn32)CC1` [zanubrutinib], the inhibition at 1 µM is 5.5% in test [1]; -2.56% in test [2]; 2% in test [3]; -0.631% in test [4]; -0.464% in test [5]; 13% in test [6]. Further, the inhibition at 1 µM in test [7] (setting [9]) was -1.42%; in test [7] (setting [10]), -0.885%; in test [8], -2.79%.
As for `Cn1cnc2c(F)c(Nc3ccc(Br)cc3F)c(C(=O)NOCCO)cc21` [binimetinib], the inhibition at 1 µM in test [1] is 5.28%; in test [2] it was 5%; in test [3], 4.67%; in test [4], -1.8%; in test [5], 2.67%; in test [6] it was -1.33%. For the same compound, the inhibition at 1 µM in test [7] (setting [9]) was -3%; in test [7] (setting [10]), -4%; in test [8], -5.55%.
Take `COc1ccc(CN2C3CC2CN(c2ccc(-c4cc(OCC(C)(C)O)cn5ncc(C#N)c45)cn2)C3)cn1` [selpercatinib]: the inhibition at 1 µM in test [1] was 99%; in test [2], -5.31%; in test [3], 2.16%; in test [4], 62%; in test [5], 12%; in test [6], 10%. The inhibition at 1 µM stood at 66% in test [7] (setting [9]), 71% in test [7] (setting [10]) and 51% in test [8].
Turning to `CCN1C(=O)N(c2c(F)c(OC)cc(OC)c2F)Cc2cnc3[nH]c(CN4CCOCC4)cc3c21` [pemigatinib], the inhibition at 1 µM is 4% in test [1]; -3.62% in test [2]; 17% in test [3]; 0.738% in test [4]; -1.18% in test [5]; 5.32% in test [6]. Further, the inhibition at 1 µM in test [7] (setting [9]) is 11%; in test [7] (setting [10]), -4.43%; in test [8] it was -1.79%.
With `CO[C@]1(C(=O)N[C@@H](C)c2ccc(-n3cc(F)cn3)nc2)CC[C@H](c2nc(C)cc(Nc3cc(C)[nH]n3)n2)CC1` [pralsetinib], the inhibition at 1 µM in test [1] is 97%; in test [2] it was 9%; in test [3], 2.26%; in test [4], 3.6%; in test [5], 0.449%; in test [6] it was 14%. The inhibition at 1 µM turned out to be 73% in test [7] (setting [9]), 70% in test [7] (setting [10]) and 26% in test [8].
With `CCn1c(=O)c(-c2cc(NC(=O)Nc3ccccc3)c(F)cc2Br)cc2cnc(NC)cc21` [ripretinib], the inhibition at 1 µM in test [1] is 9.48%; in test [2], 0.719%; in test [3], 9%; in test [4] it was 30%; in test [5], -8%; in test [6], 0.833%. Moreover, the inhibition at 1 µM in test [7] (setting [9]) was -2%; in test [7] (setting [10]), -0.807%; in test [8] it was 8%.
As for `Cc1nc(NC(=O)N2CCC[C@H]2C(N)=O)sc1-c1ccnc(C(C)(C)C(F)(F)F)c1` [alpelisib], the inhibition at 1 µM is 1.52% in test [1]; -3.29% in test [2]; 10% in test [3]; 0.22% in test [4]; -2% in test [5]; 3.69% in test [6]. The values for the inhibition at 1 µM in test [7] (setting [9]), in test [7] (setting [10]) and in test [8] were -0.801%, -0.57% and -0.527%, respectively.
On to `FC(F)(F)c1ccc(CNc2ccc(Cc3c[nH]c4ncc(Cl)cc34)cn2)cn1` [pexidartinib], for which the inhibition at 1 µM in test [1] was 10%; in test [2], 2%; in test [3], -10%; in test [4] it was 3%; in test [5], -0.557%; in test [6] it was 30%. The inhibition at 1 µM was 44% in test [7] (setting [9]), 21% in test [7] (setting [10]) and 7.43% in test [8].
As to `O=C(Nc1cnn2ccc(N3CCC[C@@H]3c3cc(F)ccc3F)nc12)N1CC[C@H](O)C1` [larotrectinib], the inhibition at 1 µM is 5.58% in test [1]; -3.56% in test [2]; 4% in test [3]; -1.52% in test [4]; -0.832% in test [5]; 4% in test [6]. Moreover, the inhibition at 1 µM in test [7] (setting [9]) is -4.5%; in test [7] (setting [10]) it was -3%; in test [8], -3.46%.
